One assay concerns the target T1, human MBLAC1 (Homo sapiens, UniProt A4D2B0).
T1 construct: expressed in transfected cells; host or cells: HEK Flp-In T-REx-293 cells, pcDNA5/FRT/TO, TET-induced, lysate
T1 sequence (A4D2B0 1-266): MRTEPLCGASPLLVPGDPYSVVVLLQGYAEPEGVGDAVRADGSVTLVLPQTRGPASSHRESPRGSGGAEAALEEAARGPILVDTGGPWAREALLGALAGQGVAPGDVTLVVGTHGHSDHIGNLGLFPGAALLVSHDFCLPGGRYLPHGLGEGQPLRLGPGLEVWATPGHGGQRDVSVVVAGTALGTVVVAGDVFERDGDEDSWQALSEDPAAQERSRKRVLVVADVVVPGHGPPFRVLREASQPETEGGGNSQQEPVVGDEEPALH
Description: Backscattering Interferometry (BSI) binding assay, lysates of T-REx cells expressing human MBLAC1. The conditions noted are these: TET induced vs non-induced T-REx lysates, 5 μM and 50 μM. The source says:
Although the pulldown approach provided initial evidence of Cef interactions with MBLAC1, the efficiency of competition was lower than expected, based on prior studies reporting the in vitro potency of Cef for GLT-1 induction. It was reasoned that steric hindrance could limit high-affinity interactions of MBLAC1 with Cef-conjugated beads. As radiolabeled Cef was unavailable, a non-isotopic approach that could examine Cef/MBLAC1 interactions without ligand immobilization was sought. […]
To assess the binding of unlabeled Cef with MBLAC1 in cell and tissue lysates, BSI was utilized. […] RI changes are quantified by comparing fringe shifts between test and reference samples.
Lysates for BSI contained Cef at concentrations of 0 μM, 5 μM, and 50 μM and concentrations of either 300 μg/mL (mouse cell lysates) or 100 μg/mL (human cell lysates and mouse brain lysates) protein. […] To obtain BSI signals, the sample with 0 μM Cef was injected into the channel in a stop-flow manner using a vacuum and allowed to reach temperature and pressure equilibrium (˜10 sec) at which point the phase value (BSI signal) was measured for 20 sec. Specific BSI signal was determined by subtracting Cef only signal from Cef-lysate signals. […]

For assay [1], the system named is MBLAC1. Description: Affinity capture of MBLAC1 with Cef-conjugated Sepharose beads, free Cef competition. The conditions noted are these: 50 μM free Cef preincubated with MBLAC1 containing extract; n=6.
The target in assay [2] is T2, MBLAC1 (Mus musculus, UniProt Q8BWY4).
T2 construct: from tissue; host or cells: frontal cortex of wild type C57BL/6J mice, 100,000 x g supernatant
T2 sequence (Q8BWY4 1-260): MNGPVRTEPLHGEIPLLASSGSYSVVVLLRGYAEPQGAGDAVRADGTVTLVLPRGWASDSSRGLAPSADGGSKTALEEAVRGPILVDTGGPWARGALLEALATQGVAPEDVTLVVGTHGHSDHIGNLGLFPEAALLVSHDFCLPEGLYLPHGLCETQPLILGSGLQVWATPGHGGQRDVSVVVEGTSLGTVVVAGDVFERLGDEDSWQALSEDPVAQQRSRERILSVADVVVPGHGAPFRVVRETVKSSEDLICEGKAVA
Description: BSI binding assay, mouse frontal cortex lysates with and without MBLAC1 immunodepletion. How it is done:
To detect endogenous Cef binding and to determine whether MBLAC1 is likely to be responsible for observed interactions, the BSI experiments were repeated using mouse frontal cortex lysates, with and without prior heat denaturation. To determine whether, and to what degree, Cef binding signals derive from MBLAC1, BSI studies were performed on lysates that had been immunodepleted of MBLAC1 protein by anti-MBLAC1 antibody (#80). […] These findings support the contention that, under these binding conditions, MBLAC1 is likely the primary species in brain lysates capable of interacting with Cef at high-affinity—that the well-replicated actions Cef in the CNS arise through MBLAC1 interactions.
Wild type C57BL/6J mice (Jackson Labs, Bar Harbor, Me.) were rapidly decapitated and frontal cortex was dissected. […] Supernatants were collected, diluted with 2× lysis buffer (40 mM HEPES, 220 mM KCl, 20 mM NaCl, 4 mM MgCl, 10 mM KH2PO4, 500 μM ZnSO4) and protein concentration determined (BCA Protein Assay, ThermoFisher, Waltham, Mass.). […]
To assess the binding of unlabeled Cef with MBLAC1 in cell and tissue lysates, BSI was utilized. […] RI changes are quantified by comparing fringe shifts between test and reference samples. […]

The target of the next assay is T3, mouse MBLAC1 (Mus musculus, UniProt Q8BWY4).
T3 construct: expressed in transfected cells; host or cells: HEK Flp-In T-REx-293 cells, pcDNA5/FRT/TO, TET-induced, lysate
T3 sequence (Q8BWY4 1-260): T2 sequence (Q8BWY4 1-260)
Description: Backscattering Interferometry (BSI) binding assay, lysates of T-REx cells expressing mouse MBLAC1. Particulars: for BSI binding signal: TET induced vs non-induced T-REx lysates, mouse MBLAC1, 5 μM and 50 μM. An excerpt:
Although the pulldown approach provided initial evidence of Cef interactions with MBLAC1, the efficiency of competition was lower than expected, based on prior studies reporting the in vitro potency of Cef for GLT-1 induction. It was reasoned that steric hindrance could limit high-affinity interactions of MBLAC1 with Cef-conjugated beads. As radiolabeled Cef was unavailable, a non-isotopic approach that could examine Cef/MBLAC1 interactions without ligand immobilization was sought. Backscattering interferometry is a sensitive approach that can detect both kinetic and equilibrium associations of unlabeled, small molecule interactions with unmodified target proteins (Bornhop et al., Science vol. 317, 1732-1736, 2007). […] BSI signals were eliminated by heat denaturation of extracts prior to analysis, consistent with Cef binding as arising from a proteinaceous species versus TET used to induce MBLAC1 expression.
To assess the binding of unlabeled Cef with MBLAC1 in cell and tissue lysates, BSI was utilized. A BSI instrument was assembled and employed (Kussrow et al., Anal Chem 84, 779-792, 2012). Briefly, BSI, using a semi-circular chip, a helium-neon laser, and CCD camera, allows for high-sensitivity, refractive index (RI) sensing. The RI signal is obtained by isolating shifts in the backscattered fringes by Fourier analysis. RI changes are quantified by comparing fringe shifts between test and reference samples.
Lysates for BSI contained Cef at concentrations of 0 μM, 5 μM, and 50 μM and concentrations of either 300 μg/mL (mouse cell lysates) or 100 μg/mL (human cell lysates and mouse brain lysates) protein. Samples were incubated on ice for 1 hr prior to analysis to favor equilibrium binding conditions. To obtain BSI signals, the sample with 0 μM Cef was injected into the channel in a stop-flow manner using a vacuum and allowed to reach temperature and pressure equilibrium (˜10 sec) at which point the phase value (BSI signal) was measured for 20 sec. Specific BSI signal was determined by subtracting Cef only signal from Cef-lysate signals. […]

For assay [3], the system named is MBLAC1 WT and MBLAC1 KO mice. Description: Effect of repeated Cef on cocaine-induced locomotion (open field). The conditions noted are these: 200 mg/kg IP once daily for 10 days, cocaine 10 mg/kg 24 h later, first 30 min. The assay is classed as in vivo, mouse. How it is done:
Animals: All mice were used in accordance with protocols approved by the Florida Atlantic University Institutional Animal Care and Use Committee. Mice were group-housed on a 12 h/12 h light/dark cycle and given ad libitum access to food and water. Breeding was accomplished with mating of heterozygous males with heterozygous females. Male and female mice 11-13 weeks old at the start of the experiment were used in testing the effects of repeated ceftriaxone on response to cocaine in the open field assay. Data from males and females were combined.
Repeated ceftriaxone treatment/acute cocaine administration: MBLAC1 wild-type (WT, MBLAC1^+/+) and knockout mice (MBLAC1^−/−) were used in this experiment. Mice were injected IP once daily for 10 days with 200 mg/kg ceftriaxone (CEF) or saline. Twenty-four hours following the last CEF injection, mice were injected with 10 mg/kg cocaine or saline followed immediately by testing in open field activity chambers (Med Associates, Fairfax, Vt.) for 60 minutes. Locomotor activity was evaluated by photocells in the X, Y and Z dimensions. Horizontal beam breaks, vertical beam breaks, and repetitive movements were recorded and measures, including distance traveled, vertical rearing and stereotypic counts, were calculated. Data were analyzed in 5 min time bins within session, and for the first 30 min following cocaine injection. Data were analyzed by two-way ANOVA repeated measures, with time bin as the repeated measure, or by two-way ANOVA for 30 min cumulated data. At the end of behavior, mice were euthanized by CO2.
The methods were performed essentially as described in Tallarida et al. Neurosci Lett vol. 556, p. 155-159, 2013.

pKd: −log10 of the molar value. Entries after “also recorded” stand apart in the source; their conditions may differ.

Broadly, the pKd is the negative decadic logarithm of the Kd, by convention in mol/L.

Take `CO/N=C(\C(=O)N[C@@H]1C(=O)N2C(C(=O)O)=C(CSc3nc(=O)c(=O)[nH]n3C)CS[C@H]12)c1csc(N)n1` [Cef, ceftriaxone]: the BSI binding signal entry at human MBLAC1 was “significant, dose-dependent BSI signals were detected only in induced cell lysates; also recorded: concentration-dependent, heat-sensitive BSI binding signals”; on mouse MBLAC1 it was “significant, dose-dependent BSI signals were detected only in induced cell lysates; also recorded: concentration-dependent, heat-sensitive BSI binding signals”. Moreover, the “Mean reduction in MBLAC1 binding to immobilized Cef” value in the assay with MBLAC1 [1] came out at 52.4±9.3%. The “BSI binding signal in MBLAC1-immunodepleted mouse frontal cortex lysate” value at MBLAC1 [2] (immunodepleted with MBLAC1 antibody #80) is reported as “the Cef binding signal was abolished; also recorded: eliminated Cef binding activity”. For the same molecule, the “BSI binding signal in mouse frontal cortex lysate” value at MBLAC1 [2] (non-depleted lysate, 5 μM and 50 μM) is listed as “shows binding signal with Cef”. Also, the pKd at mouse MBLAC1 (lysate from mouse MBLAC1 expressing cells, Cef 0.78 μM to 50 μM, r2=0.96, read-out: KD for binding (single site binding equation fit to BSI data)) is 5.66. In addition, the “Effect of Cef pretreatment on cocaine-induced locomotion in MBLAC1 KO mice” value in assay [3] is listed as “no ability to attenuate cocaine actions”; in assay [3] (listed as CEF), “had no effect on the response to cocaine”. The “Effect of Cef pretreatment on cocaine-induced locomotion in MBLAC1 WT mice” value is reported as “the locomotor activating effects of cocaine were lost” in assay [3] and “completely blocked the effects of cocaine” in assay [3] (listed as CEF).
With `CC(=O)OCC1=C(C(=O)O)N2C(=O)[C@@H](NC(=O)CCC[C@@H](N)C(=O)O)[C@H]2SC1` [CephC, cephalosporin C], the BSI binding signal result at mouse MBLAC1 is given as “a significant CephC BSI signal (FIG. 3D) was not seen; also recorded: non-significant reduction in BSI signal”.

These data come from US20200046856A1, “METHODS FOR IDENTIFYING MBLAC1-DEPENDENT MOLECULAR NETWORKS” (Florida Atlantic University Board of Trustees, priority 2018, published 2020).
